# In patent publication US20090053509A1, “Mixed solubility borate preservative” (U.S. Borax Inc., priority 2000, published 2009):
# Experiments:
# mold [1] = experiment: Mold exposure test on aspen OSB, modified ASTM D 3273-94 (Example 2); type: cell-based; conditions: for Mold Formation Rating: 4 weeks; for Mold Formation Rating, Average: average over boards and soluble borates
# Experimental: The effectiveness of the mixed solubility wood preservatives of this invention against mold growth was tested on samples of aspen oriented strand board (OSB). Two OSB formulations were evaluated. One type was bonded with pMDI resin at a 6% loading. The other type was bonded with a PF resin face and a pMDI resin core. The OSB samples contained either a mixed solubility borate preservative formulation or a low solubility borate alone, or no preservative in the case of the control samples. The low solubility borate in all cases was zinc borate 2:3:3.5. The two different high solubility borates were tested—disodium octaborate tetrahydrate (DOT) and boric oxide (B2O3), also known as anhydrous boric acid (ABA). The weight ratio of low solubility borate to high solubility borate in the mixed solubility samples was either 80/20 or 60/40. Two different target loadings of preservative in the OSB samples were tested—0.18% and 0.88% by weight.
# (§1) Mold exposure testing was carried out using a modified version of the ASTM: D 3273-94 procedure. Exposure of the OSB samples to mold was done in an experimental chamber consisting of a 597 mm×311 mm×413 mm plastic container tilted on its side to give a 45° roof angle to prevent condensate dripping on the samples and filled with 2-3 inches of water. The water was heated to 32.5° C. (±1° C.), using a thermostatically controlled heating coil. A 292 mm×394 mm×133 mm plastic bowl was filled to within 3 inches from the top with a mixture of damp potting soil and unsterile soil collected from outdoors to provide an inoculum source for mold. The bowl was floated in the plastic container. The boards were placed on a plastic mesh above the inoculum source. The blocks were inverted at one week intervals. The test ran for a duration of 4 weeks.
# After the four week mold exposure, the samples were examined visually and rated for mold formation on a scale of 0 to 4, with 0 representing no mold formation (i.e. complete control) and 4 representing complete coverage or overgrowth of the sample by mold. […] With regard to the ratio of high solubility borate to low solubility borate, the samples containing 40% soluble borate (i.e. 60% zinc borate) provided a significant improvement over the samples containing 0% soluble borate (i.e. 100% zinc borate), on average.
# [2] = tested on: Formosan subterranean termite (Coptotermes formosanus Shiraki); experiment: Termite field test of aspen waferboards, Hilo; type: in vivo; conditions: 0.88% preservative
# Description: The performance of mixed solubility borate preservatives against termites was investigated in a study using aspen waferboards bonded with either 100% pMDI (in both face and core) or with Phenol Formaldehyde (PF) in the face and pMDI in the core. The boards were made with a target loading of 0.88% preservative utilizing the formulations (blends) described in Table 4. The borates were incorporated into the board by mixing the preservative formulations with the aspen wafers in a blender before addition of the adhesive and wax. Composite board specimens were exposed to the Formosan subterranean termite (Coptotermes formosanus Shiraki) at a field test site in Hilo, Hi. The specimens, along with untreated aspen ‘feeder’ stakes, are placed in a horizontal array on hollow core concrete blocks approximately 10 cm thick. In addition to surrounding the test specimens, the untreated feeder stakes are also driven into the ground in an effort to increase the termite pressure on the test specimens. The assembly is then covered with a wooden box to prevent direct contact with rain. This is a severe test format conducted using a very termite susceptible wood species (aspen).
# After 3, 9 and 15 months exposure the boards were rated visually on a scale of 0 to 10 . A rating of 10 indicates the sample was in perfect condition, while a 0 rating means the sample was essentially destroyed. Each result consisted of an average rating from the inspection of 10 separate samples (10 replicates).
# mold [3] = experiment: Mold exposure test on aspen OSB with water repellant (Example 3); type: cell-based; conditions: scale 0-4; for Mold Formation Rating: 4 weeks, OSB pMDI 6%
# Experimental: as §1
# Another set of mold tests similar to Example 2 was carried out. Test samples consisted of Aspen OSB bonded with pMDI resin at a 6% loading. The OSB samples were treated with a hydrophobic resin 1% EW-58S, manufactured by Borden, which served as a water repellant. The preservative treated OSB samples contained either zinc borate alone or a mixture of zinc borate and DOT, at a 60/40 weight ratio. Target loadings of preservative were 0.05, 0.10 and 0.20% by weight in the OSB samples . The OSB test samples were cut into 76 mm×102 mm panels for use in the mold testing. Mold exposure testing was carried out using essentially the same method described in Example 2, except that the water was heated to 30.5° C. (±1° C.). The relative humidity within the environmental chamber was monitored and maintained at .95 to 99% with an average temperature of 27 to 30° C.
# After the four week mold exposure, the samples were examined visually and rated for mold growth on a scale of 0 to 4, as in Example 2.
# [4] = tested on: Coniophora puteana (brown rot); experiment: EN113 decay test of wood composites; type: cell-based; conditions: wood composite PF face/pMDI core; preservative loading 0.1% by weight; 12 weeks fungal decay exposure; eight samples
# Experimental: Wood composite samples were made having a phenol-formaldehyde (PF) resin face and a diphenylmethanediisocyanate (pMDI) resin core. Some of the samples included a combination of the zinc borate, 2ZnO·3B2O3·3.5H2O, (ZB) and disodium octaborate tetrahydrate (DOT) and others contained ZB alone, while still others contained no wood preservative. The ZB/DOT combination formulations contained 60% ZB by weight and 40% DOT. The preservative compositions were added to the wood composite samples at a loading of 0.1% by weight of the wood composite. The samples were cut to 50 mm×25 mm×20 mm before testing. A total of eight samples from each treatment set were subjected to decay testing.
# A total of eight samples from each treatment set were tested according to a standard European decay test protocol known as EN113. The samples were first sealed in plastic bags and gamma irradiated at a level of at a level of 2.0 Mrad using a ^60Co source to ensure sterilization prior to mono-culture decay testing.
# Aqueous solutions of 2.0% malt and 2.0% agar were prepared and then autoclaved at 120° C. for 30 minutes. […]
# The decay results are shown in Table 1, expressed as average percent weight loss of the wood composite samples after 12 weeks of fungal decay exposure.
substance,measurement,setting,value
2ZnO·3B2O3·3.5H2O [ZB only],Mold Formation Rating,"mold [1]; scale 0 (no mold) to 4 (complete coverage), target borate loading 0.18 % BAE, board pMDI-6%, measured at Edges",2.00
same,Mold Formation Rating,"mold [1]; scale 0-4, target borate loading 0.18 % BAE, board PF-pMDI, measured at Edges",2.00
same,Mold Formation Rating,"mold [1]; scale 0-4, target borate loading 0.18 % BAE, board PF-pMDI, measured at Faces",1.25
same,Mold Formation Rating,"mold [1]; scale 0-4, target borate loading 0.18 % BAE, board pMDI-6%, measured at Faces",0.75
same,Mold Formation Rating,"mold [1]; scale 0-4, target borate loading 0.88 % BAE, board PF-pMDI, measured at Edges",1.50
same,Mold Formation Rating,"mold [1]; scale 0-4, target borate loading 0.88 % BAE, board PF-pMDI, measured at Faces",0.75
same,Mold Formation Rating,"mold [1]; scale 0-4, target borate loading 0.88 % BAE, board pMDI-6%, measured at Edges",0.75
same,Mold Formation Rating,"mold [1]; scale 0-4, target borate loading 0.88 % BAE, board pMDI-6%, measured at Faces",0.00
same,"Mold Formation Rating, Average","mold [1]; scale 0-4, 0.18 % BAE, Edges",2.00
same,"Mold Formation Rating, Average","mold [1]; scale 0-4, 0.18 % BAE, Faces",1.00
same,"Mold Formation Rating, Average","mold [1]; scale 0-4, 0.88 % BAE, Edges",1.13
same,"Mold Formation Rating, Average","mold [1]; scale 0-4, 0.88 % BAE, Faces",0.38
same,Termites Ratings,"[2]; scale 0 (destroyed) to 10 (perfect), board pMDI, 3 mos. exposure, average of 10 replicates",10
same,Termites Ratings,"[2]; scale 0-10, board PF/pMDI, 3 mos. exposure",10
same,Termites Ratings,"[2]; scale 0-10, board PF/pMDI, 9 mos. exposure",9.5
same,Termites Ratings,"[2]; scale 0-10, board PF/pMDI, 15 mos. exposure",9.7
same,Termites Ratings,"[2]; scale 0-10, board pMDI, 9 mos. exposure",9.8
same,Termites Ratings,"[2]; scale 0-10, board pMDI, 15 mos. exposure",9.9
same,Mold Formation Rating,"mold [3]; target borate loading 0.05 % BAE, Edges",1.00
same,Mold Formation Rating,"mold [3]; target borate loading 0.05 % BAE, Faces",1.00
same,Mold Formation Rating,"mold [3]; target borate loading 0.10 % BAE, Edges",3.33
same,Mold Formation Rating,"mold [3]; target borate loading 0.10 % BAE, Faces",2.67
same,Mold Formation Rating,"mold [3]; target borate loading 0.20 % BAE, Edges",2.33
same,Mold Formation Rating,"mold [3]; target borate loading 0.20 % BAE, Faces",1.00
same,"Mold Formation Rating, Average","mold [3]; average over loadings 0.05-0.20 % BAE, Faces and Edges",1.89
same,Average % Wt. Loss,[4],15.98%
